# Key:
# [1] = biological target: T1, Nav1.5 sodium ion channel (alpha subunit) (Homo sapiens, UniProt Q14524); test: NaV1.5 whole cell recordings, HEK293 (AVIVA; for ACP-201, ACP-203 and ACP-204); format: cell-based; details: manual patch clamp; step to 0 mV; AVIVA method for ACP-201, ACP-203, ACP-204; read-out: NaV 1.5 IC50
# T1 construct: host or cells: HEK293 cells
# Method: NaV1.5 methods (for ACP-201, ACP-203 and ACP-204): These experiments were carried out at AVIVA Biosciences Corporation, 6330 Nancy Ridge Drive, Suite 103, San Diego, CA 92121.
# Cells: HEK293 cells transfected with Nav1.5 sodium ion channel (alpha subunit) were selected for this study. Cells were cultured in DMEM/F12 containing 10% FBS, 500 μg/mL G418 and 1% penicillin/streptomycin. Trypsin (0.05%) was utilized for cell harvesting.
# External Solution: 90 mM NaCl; 50 mM TEA; 10 mM HEPES; 10 mM glucose; 4 mM KCl; 2 mM CaCl2); 305-315 mOsm; pH 7.4 (adjusted with 5M NaOH).
# Internal Solution: 140 mM CsF; 10 mM NaCl; 1 mM MgCl2; 10 mM HEPES; 5 mM EGTA; 295-305 mOsm; pH 7.4 (adjusted with 1M NaOH).
# Electrophysiology: All whole cell recordings were performed using PX 7000A (Axon Instruments) with AVIVA's […] technology. To achieve stable recordings, cells were voltage clamped at a holding potential 20 mV more negative than steady state half inactivation potential (Vh=V1/2−20 mV). V1/2 was determined by a pre-step from −130 mV to −40 MV for 1000 ms followed by a −10 mV step. V1/2 was determined independently for each cell to correct for both electrode potential and liquid junction potential offsets.
# Test Article Handling and Dilutions: All test articles were prepared from 10 mM DMSO stock solutions. Solutions were mixed by sonication for 20 min, followed by vigorous vortexing. Prior to testing, compounds were diluted to test concentrations in glass vials using External Solution. Dilutions were prepared no longer than 20 min prior to use.
# Electrophysiology Procedures: After achieving whole cell configuration, cells were monitored for 90 s to assess stability and then washed with External Solution for 66 s. for each cell achieving whole-cell access, an IV curve and steady state inactivation curve was measured. […] Whole cell parameters were monitored throughout the recoding procedure and corrected for any possible access resistance or input capacitance change (whole-cell compensation). […]
# [2] = biological target: hCav1.2/β2/α2δ channels (Homo sapiens, UniProt Q13936); test: CaV1.2 manual patch clamp, CHO cells (CR-CLE); format: cell-based; details: manual patch clamp, room temperature, read-out: CaV 1.2 IC50
# Description: Stocks were maintained in cryogenic storage. […] Each culture dish was identified by a notation of channel name, passage number, and date.
# Rationale for Selection of Ion Channel and Expression Systems: Reduction of ICa,L is associated with action potential shortening in atrial fibrillation (Van Wagoner, et al., Circ Res 85:428-436 (1999)) while augmentation of ICa,L current may produce action potential prolongation (Ahmmed, et al., Circ Res 86:558-570 (2000)) and early after depolarizations (January, et al., Circ Res 62:563-571 (1988)). ICa.L is produced by the combination of calcium channel subunits encoded by CACNA1C (α1-subunit), CACNB2 (β2-subunit) and CACNA2D1 (α2δ-subunit) cDNAs.
# • Organism: Cricetulus griseus • Tissue: Ovary; transfected with human CACNA1C • (α1-subunit), CACNB2 (β2-subunit), and • CACNA2D1 (α2δ-subunit) cDNAs • Morphology: Epithelial • Age/Stage: Adult • Source Strain: ATCC, Manassas, VA • Source Substrain: CR-CLE
# CHO Cell Culture Procedures: CHO cells were stably co-transfected with human CACNA1C (α1-subunit), CACNB2 (β2-subunit), and CACNA2D1 (α2δ-subunit) cDNAs. Stable transfectants were selected by coexpression of the cDNAs with antibiotic resistance genes for blasticidin, hygromycin, G418, and zeocin. Selection pressure was maintained by including these antibiotics in the culture medium. Cells were cultured in Ham's F12 Medium supplemented with 10% fetal bovine serum, penicillin-streptomycin (100 units/mL), blasticidin (10 μg/mL), zeocin (400 μg/mL), G418 (250 μg/mL) and hygromycin (250 μg/mL). To avoid Ca^2+-induced toxicity, verapamil (3 μmol/L) was added to the cultured cells.
# hCav1.2/β2/α2δ-CHO is a tetracycline-inducible cell line. To induce expression, tetracycline at a final concentration of 1 μg/mL was added to media lacking the selection antibiotics. Currents were recorded greater than 16 hours post-induction.
# Treatment Groups: All experiments were performed at room temperature. Each cell acted as its own control.
# Each concentration was tested in at least three cells (n≥3).
# Positive Control Group: The positive control article nifedipine (Sigma-Aldrich) was tested in two cells (n=2) at 0.1 μM. Previous results have shown that nifedipine at 0.1 μM inhibits hCav1.2 current by approximately 90%.
# Electrophysiological Procedures: Cells were superfused with vehicle control solution. Micropipette solution for whole cell patch clamp recordings was composed of (mM): Cs-methanesulfonate (MES), 130; TEA-Cl, 20, MgCl2, 1; EGTA, 10; Mg-ATP, 4; Tris-GTP, 0.3, phosphocreatine di-(Tris) salt, 14, creatine phosphokinase, 50 U/mL, and HEPES, 10; pH adjusted to 7.2 with N-methyl-D-glucamine or CsOH. Micropipette solution was prepared in batches, aliquoted, stored frozen, and a fresh aliquot thawed each day. […] Before digitization, current records were low-pass filtered at one-fifth of the sampling frequency.
# Experimental Procedures: Onset and steady inhibition was evaluated at a test potential of 0 mV (150 ms duration), repeated at ten-second intervals from a holding potential of −40 mV. Peak current was measured during the step to 0 mV. Peak current was monitored until a new steady state was achieved. hCav1.2 current was monitored until a new steady state was achieved and a steady state was maintained for at least 20 s before applying test article or positive control article formulations. […]
# Nonlinear least squares fits were solved with the Solver add-in for Excel 2003 or later (Microsoft, Redmond, WA) and the IC50 was calculated.
# T1 sequence (Q14524 whole entry): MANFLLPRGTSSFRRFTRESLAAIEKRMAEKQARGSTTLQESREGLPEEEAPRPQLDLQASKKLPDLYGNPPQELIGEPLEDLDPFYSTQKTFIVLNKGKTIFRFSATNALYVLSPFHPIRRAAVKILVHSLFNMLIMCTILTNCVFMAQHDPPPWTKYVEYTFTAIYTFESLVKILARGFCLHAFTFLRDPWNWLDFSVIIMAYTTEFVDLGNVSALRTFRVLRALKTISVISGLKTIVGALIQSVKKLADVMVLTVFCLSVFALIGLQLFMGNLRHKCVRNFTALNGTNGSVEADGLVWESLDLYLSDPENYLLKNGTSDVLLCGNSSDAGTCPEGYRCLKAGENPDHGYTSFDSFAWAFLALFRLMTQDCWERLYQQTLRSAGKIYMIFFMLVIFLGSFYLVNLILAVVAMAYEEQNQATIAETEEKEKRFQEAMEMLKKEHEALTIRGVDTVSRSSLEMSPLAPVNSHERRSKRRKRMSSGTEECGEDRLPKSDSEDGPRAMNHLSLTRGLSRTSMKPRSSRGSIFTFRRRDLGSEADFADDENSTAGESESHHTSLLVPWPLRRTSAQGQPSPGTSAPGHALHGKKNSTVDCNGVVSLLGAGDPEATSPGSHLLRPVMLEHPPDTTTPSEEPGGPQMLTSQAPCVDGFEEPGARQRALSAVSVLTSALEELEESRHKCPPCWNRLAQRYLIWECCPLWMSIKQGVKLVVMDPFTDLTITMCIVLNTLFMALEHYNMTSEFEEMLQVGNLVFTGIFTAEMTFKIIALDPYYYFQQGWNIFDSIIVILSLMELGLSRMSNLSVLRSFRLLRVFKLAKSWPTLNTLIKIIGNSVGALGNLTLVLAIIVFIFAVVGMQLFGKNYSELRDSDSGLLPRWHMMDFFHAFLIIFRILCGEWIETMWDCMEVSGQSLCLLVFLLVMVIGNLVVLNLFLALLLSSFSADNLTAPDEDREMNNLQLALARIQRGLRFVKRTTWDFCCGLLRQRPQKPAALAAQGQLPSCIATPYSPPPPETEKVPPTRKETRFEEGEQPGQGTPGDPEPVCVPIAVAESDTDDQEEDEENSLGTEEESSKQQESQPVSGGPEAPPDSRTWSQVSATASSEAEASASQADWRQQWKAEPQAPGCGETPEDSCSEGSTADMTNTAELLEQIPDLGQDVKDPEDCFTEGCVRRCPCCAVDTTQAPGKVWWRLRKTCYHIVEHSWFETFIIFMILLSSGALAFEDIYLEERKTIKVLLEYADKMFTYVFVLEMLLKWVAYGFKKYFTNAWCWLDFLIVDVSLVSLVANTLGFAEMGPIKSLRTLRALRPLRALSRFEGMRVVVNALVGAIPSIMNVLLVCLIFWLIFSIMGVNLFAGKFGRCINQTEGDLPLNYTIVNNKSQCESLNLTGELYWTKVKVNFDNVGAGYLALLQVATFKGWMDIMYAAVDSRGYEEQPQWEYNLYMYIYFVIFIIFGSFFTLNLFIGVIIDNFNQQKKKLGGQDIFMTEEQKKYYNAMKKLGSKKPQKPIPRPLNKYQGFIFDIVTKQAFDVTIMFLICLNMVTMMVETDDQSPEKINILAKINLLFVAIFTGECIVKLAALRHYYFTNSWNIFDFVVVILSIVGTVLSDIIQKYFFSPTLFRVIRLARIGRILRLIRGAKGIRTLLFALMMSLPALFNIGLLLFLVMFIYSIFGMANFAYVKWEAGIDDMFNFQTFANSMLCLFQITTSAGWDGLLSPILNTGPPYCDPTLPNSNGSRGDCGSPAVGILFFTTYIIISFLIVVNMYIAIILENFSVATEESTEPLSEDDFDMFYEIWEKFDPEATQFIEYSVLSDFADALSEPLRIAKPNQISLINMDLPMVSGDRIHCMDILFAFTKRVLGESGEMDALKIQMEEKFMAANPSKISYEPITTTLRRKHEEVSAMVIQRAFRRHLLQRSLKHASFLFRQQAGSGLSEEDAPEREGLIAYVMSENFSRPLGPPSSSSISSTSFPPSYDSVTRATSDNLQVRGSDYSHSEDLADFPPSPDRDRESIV
Structure (SMILES),IC50 [1],IC50 [2]
"CC(C)COc1ccc(CNC(=O)N(Cc2ccc(F)cc2F)C2CCN(C)CC2)cc1 [Example 3, 1-[(2,4-difluorophenyl)methyl]-1-(1-methylpiperidin-4-yl)-3-{[4-(2-methylpropoxy)phenyl]methyl}urea]",4.2 µM,1.4 µM
"CC(C)Oc1ccc(CNC(=O)N(Cc2ccc(F)cc2F)C2CCN(C)CC2)cc1 [Example 5, 1-[(2,4-difluorophenyl)methyl]-1-(1-methylpiperidin-4-yl)-3-{[4-(propan-2-yloxy)phenyl]methyl}urea]",> 10 µM,11.3 µM
"CN1CCC(N(Cc2ccc(F)cc2F)C(=O)NCc2ccc(OC3CC3)cc2)CC1 [Example 17, 3-[(4-cyclopropoxyphenyl)methyl]-1-[(2,4-difluorophenyl)methyl]-1-(1-methylpiperidin-4-yl)urea]",> 10 µM,3.5 µM
